Test results reported in ChEMBL document CHEMBL1269002, “A protecting group-free synthesis of deazathiamine: a step toward inhibitor design” (Bioorg Med Chem Lett, 2010).

Tests used:
[1] = Competitive inhibition of Mycobacterium tuberculosis 2-hydroxy-3-oxoadipate synthase-catalyzed reduction of ferricyanide
[2] = Inhibition of Mycobacterium tuberculosis 2-hydroxy-3-oxoadipate synthase-catalyzed reduction of ferricyanide

| SMILES | Ki [1] [µM] | IC50 [2] [µM] |
| --- | --- | --- |
| Cc1ncc(Cc2csc(CCOP(=O)(O)OP(=O)(O)O)c2C)c(N)n1 | 3.5 | 6.7 |
| Cc1ncc(Cc2csc(CCO)c2C)c(N)n1 [3-DEAZATHIAMINE] | 76 | 144 |
